For four molecules, Km and kcat results are on record in paper PMC11528125, “Characterization of O-methyltransferases in the biosynthesis of phenylphenalenone phytoalexins based on the telomere-to-telomere gapless genome of Musella lasiocarpa” (Horticulture Research, 2024).

Common to all, as to test: MTase-Glo methyltransferase assay (SAH luminescence), Michaelis-Menten fit
Common to all, as to assay type: biochemical, Musella lasiocarpa

One data set concerns T1, Ml08G0855.
T1 construct: MBP fusion from pMAL-c4x (EcoRI/SalI), E. coli BL21 (DE3), purified
As to conditions: 2 mM SAM, 45°C, 30 min; Tris-HCl; read-out: apparent Km.

The test system of a further data set is T2, Ml01G0494.
T2 construct: MBP fusion from pMAL-c4x (EcoRI/SalI), E. coli BL21 (DE3), purified
The conditions noted are these: 2 mM SAM, 45°C, 30 min; Tris-HCl; read-out: apparent Km.

Substrate in data set [1]: O=C1C(O)=Cc2cccc3ccc(-c4ccccc4)c1c23
The conditions noted are these: 2 mM SAM, 45°C, 30 min, Tris-HCl. From the text: (§1) MTase-Glo methyltransferase assay (SAH luminescence), Michaelis-Menten fit on Ml04G2958 | The apparent Kcat/Km values of Ml01G0494, Ml04G2958, and Ml08G0855 for MLT3 | the apparent Kcat/Km values of Ml01G0494, Ml04G2958, and Ml08G0855 for MLT4

Substrate in data set [2]: O=C1C(O)=Cc2cccc3ccc(-c4ccc(O)cc4)c1c23
The conditions noted are these: 2 mM SAM, 45°C, 30 min, Tris-HCl.
Description: as §1

Broadly, the Km is the substrate concentration at which the rate is half of its maximum. For orientation: kcat means the maximal rate divided by the concentration of active sites.

On to `O=C1C(O)=Cc2c(-c3ccc(O)c(O)c3)ccc3cccc1c23` [MLT9], for which the Km in the data set with Ml08G0855 came to 81.9 µM; in the data set with Ml01G0494 it was 971 µM.

With `O=C1C(O)=Cc2cccc3ccc(-c4ccccc4)c1c23` [MLT4], the Michaelis-Menten constant (Km) came to 37.3 ± 10.7 µM in the data set on Ml08G0855 and 8.51 ± 0.13 µM with Ml01G0494.

Turning to `O=C1C(O)=Cc2cccc3ccc(-c4ccc(O)cc4)c1c23` [MLT3], the results for the Km with Ml08G0855 and in the data set with Ml01G0494 were 111 ± 27.4 µM and 60.4 ± 16.6 µM, respectively.

B1: Ml04G2958 (Musella lasiocarpa) (protein)
chain: MAGPHVVDAVGEHSEPYKSASRAHHHHYRHHSSLPLRTMGSVRAAAAALQPSPEEDEEACLQAGQLVSSSVLPMTLKAAIELQLLEIIVGAGPGARLSPADVAAQLPTTNPQAAAMVDRILRLLAAYGIVGCSVEAGPDGRPCRKYGAAPVCKYLTRNEDGVSFAALSLMNQDKVLMESWYHLKDAVLEGGIPFNKAYGMTAFEYHGTDPRFNKVFNEGMRSHSIIITKKLLQVYRGFDDVKVLVDVGGGTGATLHMITSTHPHILGINYDLPHVISDAPPLPGVEHVSGDMFESVPGGDAILMKWILHDWSDEHCAKILKNCWKALPEKGKLIAVECVLPVVPEPSLRTQSVCHVDLIMLAHNPGGKERTEMEFEELAKQAGFSGFKPTYVYASTWALEFTK
notes: MBP fusion from pMAL-c4x (EcoRI/SalI), E. coli BL21 (DE3), purified
As for B1, in data set [1], the Km came to 5.30 ± 0.68 µM and the kcat stood at 0.00033 s⁻¹. In data set [2], the Michaelis-Menten constant (Km) was determined as 69.94 ± 14.71 µM and the kcat was 0.0005 s⁻¹.
